Test results as given in publication PMC9031226, “Preclinical Therapeutic Assessment of a New Chemotherapeutics [Dichloro(4,4’-Bis(2,2,3,3-Tetrafluoropropoxy) Methyl)-2,2’-Bipryridine) Platinum] in an Orthotopic Patient-Derived Xenograft Model of Triple-Negative Breast Cancers” (Pharmaceutics, 2022).

How the values were obtained:
[1] = system: patient-derived TNBC tumors; test: Orthotopic patient-derived xenograft (PDX) model, tumor growth; type: in vivo; settings: NSG mice
Text: The procedures for the establishment of breast cancer-bearing xenograft models were modified from previous publications and approved by the Taipei Medical University (TMU) Institutional Animal Care and Use Committee (IACUC No. LAC- 2021-0546) and the Joint Institutional Review Board of Taipei Medical University (N201812005). Overall, 4- to 6-week-old NOD.Cg-PrkdcscidIl2rgtm1Wjl/SzJ (NSG) female mice purchased from BioLASCO Taiwan Co., Ltd. (Taipei, Taiwan) were housed in specific pathogen-free rooms with ad libitum feeding and 12 h light–dark cycle. Patient-derived TNBC tumors were microscopically considered for a hypervascular background and frequent mitosis features, and triple-negative results for estrogen receptor, progesterone receptor and human epidermal growth factor receptor 2 (HER2). After a week of acclimatization, patient-derived TNBC tumors dissected into 3 × 3 × 3 mm^3 were implanted using puncture needle in fat pads between the third and fourth mammary glands for each mouse.
Tumor growth curves were generated by measuring tumor diameters and then calculating based on the same equation described above. Finally, the mice were sacrificed on day 23 after the first dose of treatments. Plasma, tumors and major organs (heart, liver, kidney, spleen and lung) were collected for toxicity assessment and metastasis evaluation.

STAT3-DN plasmid = test: Gel-based electrophoretic mobility shift assay; type: binding; settings: 24 h, 37 °C
Procedure: Plasmid DNA interacting with platinum-containing compounds was studied using agarose gel electrophoresis to separate DNA fragments dependent on sizes and structures. In total, […] of STAT3-DN plasmid (BIOTOOLS Co., New Taipei City, Taiwan) around 4.8 kb provided by Dr. Chien-Huang Lin was incubated with an equal volume of increasing concentrations of compounds (5~40 µM) at 37 °C for 24 h.

SK-OV-3 = test: MTT cell viability assay on SK-OV-3; type: cell-based, human; settings: for IC50: SK-OV-3, MTT assay, 48 h
Procedure: (§1) Human cancer cell lines, including MDA-MB-231, MCF-7, COLO205 and SK-OV-3, used in this study were purchased from American Type Culture Collection (ATCC, Manassas, VA, USA). All cell cultures were maintained in a 5% CO2-containing incubator at 37 °C. Triple-negative breast cancer cell line MDA-MB-231 and estrogen receptor-positive breast cancer cells MCF-7 were cultured in Dulbecco’s Modified Eagle Medium/Nutrient Mixture F-12 medium (DMEM/F12, Thermo Fisher Scientific Inc., Waltham, MA, USA) supplemented with 1% HyClone Penicillin-Streptomycin 100X solution (Cytiva, Marlborough, MA, USA) and 10% (v/v) fetal bovine serum (Thermo Fisher Scientific Inc., Waltham, MA, USA). COLO205 colon cancer cells and SK-OV-3 ovarian cancer cells were cultured in Roswell Park Memorial Institute (RPMI) 1640 medium (Thermo Fisher Scientific Inc., Waltham, MA, USA) containing the same supplements as described above.
(§2) Cell viability was evaluated using MTT assay. […] A viable cell count was determined by adding MTT reagent (3-(4,5-Dimethyl-2-thiazolyl)-2,5-diphenyl-2H-tetrazolium bromide (MTT; SERVA, Heidelberg, Germany) at a concentration of 5 mg/mL in PBS followed by measurement of the absorbance at 570 nm for each well detected by μQuant™ universal microplate spectrophotometer (BioTek, Winowski, VT, USA). The assessment procedures were followed under the manufacturer’s instructions. The final results were represented as mean values in the same experimental group detected by a microplate reader.

MDA-MB-231 cells [2] = test: Apoptosis detection (annexin V/PI, flow cytometry); type: cell-based, human; settings: MDA-MB-231, 15 h
Procedure: In total, 3 × 10^5 MDA-MB-231 cells were first plated and cultured in a 6-well plate for 24 h and then exposed to medium, TFBPC- or CDDP-containing medium, and incubated in the dark for another 15 h, followed by apoptotic assessment using FITC-annexin V (AV) and propidium iodide (PI) double staining cell solution (Thermo Fisher Scientific Inc., Waltham, MA, USA) for 30 min. To assess the AV-Phosphatidylserine (excitation/emission maxima of 490/525 nm) and PI-DNA (excitation/emission maxima of 535/617 nm) binding, fluorescence intensity was analyzed and recorded using flow cytometer. Scatters in a two-parameter dot plot were gated into four quadrants. Proportions in the lower right (LR) and upper right (UR) quadrants were represented as the early stage and late stage in apoptotic process.

calf thymus DNA (ct-DNA) = test: UV-Vis spectrum of DNA-drug complex; type: binding; settings: 25 ng/μL ct-DNA, 40-640 μM, 6 h, 37 °C
Procedure: The binding of the platinum-based agent with calf thymus DNA (ct-DNA) was assessed using UV-visible spectroscopy. […] Absorption between the wavelengths of 220 nm and 500 nm was detected by measuring absorbance every 2 nm via Thermo Varioskan Flash microplate reader (Thermo Fisher Scientific Inc., Waltham, MA, USA). The maximal absorbance of DNA at 260 nm was marked to highlight the spectrum in pure DNA without chemical intercalation.

MDA-MB-231 cells [3] = test: DNA fragmentation (agarose gel); type: cell-based, human; settings: MDA-MB-231, 24 h
Procedure: DNA samples suspended in DNA lysis buffer containing 1.0 mM Tris hydrochloride (pH 7.5), 10 mM EDTA (pH 8.0), 10 mM sodium chloride and 0.5% Triton X-100.

MDA-MB-231 cells [4] = test: Cell cycle analysis (PI staining, flow cytometry); type: cell-based, human; settings: 24 h; for DNA content in S phase: without exposure 14.75%; for DNA content in sub G1: without exposure 8.71%
Procedure: The pellet was collected and fixed in 99% ice-cold ethanol and then stored in a freezer at −20 °C for further processing of staining. To label DNA, those fixed cells were rapidly washed to remove the residual fixing agent, followed by staining with DNA intercalating agent propidium iodide solution (PI) for 30 min in the dark. The PI working solution contains 0.5% Triton X-100, 15 μg propidium iodide (PI; BioVision Inc., Milpitas, CA, USA) and 10 μg RNase A (Thermo Fisher Scientific Inc., Waltham, MA, USA) in 1 mL PBS. The measurement and acquisition of DNA content were conducted using FACSVerse^TM Flow Cytometer (BD, Franklin Lakes, NJ, USA). Cell cycle distribution in four phases (subG1, G1, S, G2/M) was gated and analyzed in Kaluza Analysis Software (Beckman Coulter Inc., Indianapolis, IN, USA).

MDA-MB-231 = test: MTT cell viability assay on MDA-MB-231; type: cell-based, human; settings: for reduction in cell viability: MDA-MB-231, 20 μM; for IC50: MDA-MB-231, MTT assay, 48 h
Procedure: as §1, §2

SMILES | average tumor volume vs. control ([1]; 2.11 or 5 mg/kg i.v. weekly x4) | breakage of plasmid DNA (nicked or linear forms) (STAT3-DN plasmid) | IC50 (SK-OV-3) [µM] | induction of apoptosis (annexin V) (MDA-MB-231 cells [2]) | change in UV-Vis absorption spectrum of ct-DNA at 260 nm (calf thymus DNA (ct-DNA)) | DNA fragmentation (MDA-MB-231 cells [3]) | DNA content in S phase (MDA-MB-231 cells [4]; MDA-MB-231, 2.5 μM) [%] | DNA content in S phase (MDA-MB-231 cells [4]; MDA-MB-231, 5 μM) [%] | DNA content in S phase (MDA-MB-231 cells [4]; MDA-MB-231, 10 μM) [%] | reduction in cell viability (MDA-MB-231) [%] | IC50 (MDA-MB-231) [µM] | average tumor volume and weight compared among groups ([1]; 5 mg/kg i.v. weekly x4, day 23) | reduction in cell viability (SK-OV-3; SK-OV-3, 0.625 μM) [%] | reduction in cell viability (SK-OV-3; SK-OV-3, 1.23 μM) [%] | reduction in cell viability (SK-OV-3; SK-OV-3, 2.5 μM) [%] | DNA content in sub G1 (MDA-MB-231 cells [4]; MDA-MB-231, 2.5 μM) [%] | DNA content in sub G1 (MDA-MB-231 cells [4]; MDA-MB-231, 5 μM) [%] | DNA content in sub G1 (MDA-MB-231 cells [4]; MDA-MB-231, 10 μM) [%]
N.N.[Cl][Pt][Cl] [CDDP, Cis-diamineplatinum(II) dichloride] | no statistical difference | induced single or double breakages of plasmid DNA | 41 | failed to induce MDA-MB-231 cells to undergo apoptosis | hypochromic profile | no sign of cisplatin-induced PS expression or DNA fragmentation | 26.8 | 32.27 | 39.65 | 10 | > 80 |  |  |  |  |  |  | 
FC(F)C(F)(F)COCc1ccnc(-c2cc(COCC(F)(F)C(F)F)ccn2)c1.[Cl][Pt][Cl] [TFBPC] |  | induced single or double breakages of plasmid DNA | 1.92 | caused cells to undergo an apoptotic fate | hyperchromicity profile | DNA fragmentation confirms TFBPC-induced apoptosis |  |  |  | 88 | 3.86 | smallest size in volume | 29 | 54 | 78 | 14.8 | 23.14 | 27.15
